Read-outs that look alike come from different tables or passages of the source.
How the values were obtained:
Acute toxicity in Mice = format: in vivo, mice (SWISS, EOPS, NMRI/Han, female); settings: for LD50 at 360 h / MTD at 360 h: mouse, in vivo; for LD50 at 360 h: method of KARBER and BEHRENS; for MTD at 360 h: read-out: LD 0 (maximum dose tolerated)
Protocol: The compounds are administered in increasing doses (in arithmetic progression) to groups of five .female. SWISS, EOPS, NMRI/Han mice of the EVIC CEBA strain and having a mean weight of 22 g.
For intravenous administration the compounds are dissolved in distilled water, for oral administration they are suspended in 10% gum arabic solution (volume administered: 0.5 ml/22 g body weight).
The LD 50's are calculated according to the method of KARBER and BEHRENS (B.) (Arch. Exp. Path. Pharmakol. 1935, 177, 379-388).
For each administration method, there is indicated:
LD 0 or maximum dose tolerated.
LD 100 or minimum lethal dose.
The number of animals surviving in the different groups is definitively verified 15 days after administrating the compounds.

[1] = system: toxicity of amphetamine compounds; assay: Action on the toxicity of Amphetamine compounds in the mice; format: in vivo; settings: per os
Protocol: (6) Action on the toxicity of Amphetamine compounds in the mice. (groups of 10 animals)
30 minutes after administration of the test compounds, amphetamine bitartrate is injected interperitioeally at a dose of 10 mg/kg (dose giving substantially 100% mortality) to mice in groups of 10 in boxes 12×18×13 cm. The number of animals surviving 24 hours after the amphetamine administration is noted.

[2] = Test on the cataleptic action in rats; format: in vivo; settings: p.o., every 30 minutes for 6 hours
Protocol: (7) Test on the cataleptic action in rats (groups of 5 animals)
After administration p.o. of the test compounds, the degree of catalepsy is noted every 30 minutes for 6 hours by the test of crossing of the homolateral feet according to BOISSIER (J.R.) and SIMON (P.) (Therapy, 1963, 18, 1257-1277) and using the following notation:
0=animal which is not cataleptic
132 animal conserving position on one side only
2=animal conserving position on both sides

[3] = system: coughing induced by aqueous citric acid aerosol; assay: Antitussive action in the guinea pig (citric acid aerosol); format: in vivo
Text: The technique used is that of SIECKMANN (W.) (in "Notions techniques de Pharmacologie generale" by Michel COLOT, page 75, Masson, Edit, 1972).
The guinea pigs .female. of mean weight 400 g, unanaesthesised, are subjected to the tussigenic effect of aerosols of a 7.5% aqueous citric acid solution. The animals are placed one by one in a cylindrical chamber having at its two extremities two canals, one serving as entrance for the aerosol and the other as its exit.
On the exit tube there is a lateral connection to a MERCURY gas pressure differential gauge joined to an RACIA counter. An adjustable screw clamp placed on the exit tube downstream of the lateral canal permits regulation of the sensitivity of the system such that the normal respiration of the animal only registers very weakly and that displacement of air in the chamber provoked by coughing attack is recorded clearly in the form of vertical traces.
Each guinea pig is first submitted to a control test for 5 minutes. One hour later it receives the test compound. It is replaced in the chamber for 5 minutes, 1 hour after oral administration of the compound.
The number of coughing attacks before and after administration is counted and the percentage inhibition is calculated.

[4] = system: coughing by stimulation of the superior larynx nerve; assay: Antitussive action in the cat (stimulation of the superior larynx nerve); format: in vivo; settings: 12 mg/kg i.v.
Protocol: The cats all thriving, male or female of weight between 1.5 and 2.5 kg (test on 10 cats) are anaesthesised by nembutal at a dose of 30 mg/kg interperitoneally.
A cannula having three branches is placed in the trachea. Two of the branches are connected to a device for registering intratracheal pressure (MERCURY gas pressure gauge connected to an RACIA polygraph) The third branch allows elimination of part of the respiratory volume.
A cannula is placed in the femoral vein for administration of the test substances.
The stimulation parameters are as follows: frequency: 5 cycles per sec, amplitude: 5 millisec, voltage: 4 to 6 volts, duration: 15 to 45 sec. (according to the sensitivity of the animal).
There are carried a minimum of 3 stimulations spaced by 5 minutes and provoking coughing attacks of the same severity. The compound is then administered intravenously. The stimulation is then carried out every 5 minutes. If the compound reduces or suppresses the coughing the stimulation is continued until the reappearance of coughing to approximately the same degree as the initial coughing.
The results are expressed as a percentage reduction in the number of coughs.

## O=C1CCCCC1CN1CCN(c2cccc(C(F)(F)F)c2)CC1 (centres unmarked) [LJ 1144]
Acute toxicity in Mice; intravenous administration
  LD 100 (minimum lethal dose): 75 mg/kg
Acute toxicity in Mice; iv, intravenous administration
  LD50 at 360 h: 61 mg/kg
  MTD at 360 h: 37.5 mg/kg
Acute toxicity in Mice; po, oral administration
  LD50 at 360 h: 1820 mg/kg
  MTD at 360 h: 1250 mg/kg
Acute toxicity in Mice; oral administration
  LD 100 (minimum lethal dose): 2250 mg/kg
[1]
  toxicity of amphetamine compounds (in words): reduce the toxicity of amphetamine compounds
[2]
  cataleptic effect: absence of cataleptic effect
[3]; Cavia porcellus, po, 1 h, 182 mg/kg p.o., read-out: Percentages of inhibition of coughing
  inhibition in vivo at 182 mg/kg: 75%
[3]; oral
  antitussive activity (in words): also active if not more active than codeine
[4]
  % maximum reduction in the number of coughs: 85%

Reference: patent US4203986A, “M-Trifluoro-methylphenyl-piperazine” (Metabio-Joullie, priority 1977, dated 1980)
